# According to patent US20190365907A1, “ZWITTERIONIC POLYMER-INSULIN COMPOSITIONS AND RELATED METHODS” (Wayne State University, priority 2017, published 2019):
# Columns and labels:
# [1] = test system: streptozotocin (STZ) induced diabetic mice; test: Blood glucose lowering after tail vein injection in STZ-induced diabetic mice; assay type: in vivo
# Method: The mice were fasted during the glucose testing period.
# The injection dose for the three samples were readily kept the same at 10 nmol/Kg insulin or its conjugate (for native insulin dose, 10 nmol/kg=1.5 IU/kg), by accurately controlling the feeding molar content of insulin for the conjugation reaction.
# The in vivo bioavailability of insulin samples was evaluated by quantifying the area above the curve (AAC) of relative intensity of blood glucose concentration in FIG. 4B.
# [2] = Hydrodynamic size by dynamic light scattering (DLS); assay type: physicochemical; details: pH 8.4 0.2M HEPES buffer, 25° C.; average±standard deviation, n=3
# Method: The hydrodynamic sizes of the insulin and its conjugate samples were collected by a DLS method using a Malvern Nano-ZS Zetasizer at 25° C.
# The hydrodynamic size of PCB-conjugated insulin was measured by a dynamic light scattering (DLS) method by using a Malvern Nano-ZS Zetasizer.
# [3] = molecular target: T1, insulin receptor (Cricetulus griseus, UniProt A0A8C2MAM4); test: In vitro bioactivity assay of insulin (phosphorylated AKT at Ser473 in CHO-M 1 cells); assay type: cell-based; details: 10 μg/mL, 45 minutes, FIG. 4C
# T1 construct: host or cells: CHO-M1 cells
# T1 sequence (A0A8C2MAM4 28-1372): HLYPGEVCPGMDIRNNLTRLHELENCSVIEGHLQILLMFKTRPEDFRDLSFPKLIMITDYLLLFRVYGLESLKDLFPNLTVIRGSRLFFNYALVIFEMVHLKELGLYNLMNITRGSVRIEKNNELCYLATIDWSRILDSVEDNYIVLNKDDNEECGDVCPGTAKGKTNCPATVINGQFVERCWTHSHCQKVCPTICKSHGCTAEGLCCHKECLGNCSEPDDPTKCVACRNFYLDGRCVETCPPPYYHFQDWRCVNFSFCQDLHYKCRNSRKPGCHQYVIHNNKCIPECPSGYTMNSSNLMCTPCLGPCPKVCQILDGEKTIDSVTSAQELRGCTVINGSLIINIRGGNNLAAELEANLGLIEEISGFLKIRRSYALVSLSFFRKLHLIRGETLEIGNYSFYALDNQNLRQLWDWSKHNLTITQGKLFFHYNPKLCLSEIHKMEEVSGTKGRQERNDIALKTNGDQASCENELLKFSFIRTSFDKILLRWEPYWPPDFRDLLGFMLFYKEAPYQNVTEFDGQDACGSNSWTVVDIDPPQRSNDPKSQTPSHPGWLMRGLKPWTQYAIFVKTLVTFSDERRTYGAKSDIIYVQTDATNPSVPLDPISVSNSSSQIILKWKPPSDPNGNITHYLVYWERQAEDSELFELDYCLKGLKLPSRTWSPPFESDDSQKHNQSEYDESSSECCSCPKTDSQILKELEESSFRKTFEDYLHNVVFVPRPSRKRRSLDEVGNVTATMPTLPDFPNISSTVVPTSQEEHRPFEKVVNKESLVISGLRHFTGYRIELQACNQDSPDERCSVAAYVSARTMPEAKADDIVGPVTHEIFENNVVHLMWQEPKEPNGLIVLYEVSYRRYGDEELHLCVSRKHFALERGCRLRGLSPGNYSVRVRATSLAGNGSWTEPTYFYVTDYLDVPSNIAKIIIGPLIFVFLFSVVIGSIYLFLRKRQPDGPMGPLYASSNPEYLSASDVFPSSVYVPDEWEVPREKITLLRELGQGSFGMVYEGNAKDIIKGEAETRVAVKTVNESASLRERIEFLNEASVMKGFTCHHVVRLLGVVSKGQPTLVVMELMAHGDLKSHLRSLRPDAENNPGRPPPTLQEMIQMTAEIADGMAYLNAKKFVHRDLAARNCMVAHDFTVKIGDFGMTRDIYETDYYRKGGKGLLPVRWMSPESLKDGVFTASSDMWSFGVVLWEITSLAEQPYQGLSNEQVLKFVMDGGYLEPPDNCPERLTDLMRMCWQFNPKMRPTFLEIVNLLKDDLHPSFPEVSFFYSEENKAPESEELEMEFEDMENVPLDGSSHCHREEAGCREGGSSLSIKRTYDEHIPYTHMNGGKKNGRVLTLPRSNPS
# Method: About 25,000 CHO-M 1 cells/well (ATCC) were seeded in a 96-well tissue culture treated plate and incubate for 24 h before being cultured in serum-free medium. […] Then cells were lysed and a commercially available kit (Cisbio) was used to assay phosphorylated AKT at Ser473. The fluorescence emission at 665 and 620 nm was measured on a HTRF reader (BioTek, USA).
# The relative activity was presented as the percentage relative to native insulin±standard deviation (n=6) * p<0.05, ** p<0.01, ns=not significant.
# [4] = Circular dichroism secondary structure of insulin samples; assay type: physicochemical; details: far-UV CD, 0.2 mg/mL in 0.2 M pH 8.2 PBS buffer, CDSSTR analysis
# Method: CD spectra were collected by using a Chirascan spectrophotometer from Applied Photophysics at 25° C. Insulin samples were dissolved in 0.2 M PBS buffer at 0.2 mg/ml. The […] CD spectra were measured from 200 to 250 nm with the light-path length of 1 mm. The scanning speed of CD spectra measurement was set at 200 nm/min. Each spectrum was the average of three scans to increase the signal-to-noise ratio of the measurements. The secondary structure proportions for insulin and its conjugates were analyzed using CDSSTR software.
# The effect of polymer conjugation on the structure change of insulin was evaluated. Far-ultraviolet CD spectra were collected to quantify the effect of the zwitterionic polymer conjugation on insulin's secondary structure.
# [5] = non-purified (rough) products, 10 nmol/Kg intravenous, FIG. 4A
# [6] = purified conjugates, 10 nmol/kg intravenous, FIG. 4B
Substance,"blood glucose lowering ability compared with native insulin [1, 5]","blood glucose lowering ability compared with native insulin [1, 6]",hydrodynamic size [2] [nm],activity lost in vitro compared with native insulin [3],Random coil (secondary structure proportion) [4] [%]
"PCB-insulin: Conjugate of human recombinant insulin with NHS ester terminated zwitterionic carboxybetaine polymer (~5000 Da), one chain per insulin, prioritized at LysB29",significantly higher blood glucose lowering ability than native insulin,even higher blood glucose lowering ability than native insulin,–,–,–
PEG-insulin: Comparison conjugate of human recombinant insulin with commercially available PEG-NHS (5000 Da),similar,did not show any better glucose lowering effect than native insulin,4.2±0.7,about 27%,30
